According to PubChem BioAssay (NCI):
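Protocol summary: plate cells (96-well), add compound at 5 concentrations, incubate 48 h, interpolate endpoints linearly. GI50: concentration for 50% inhibition of growth. Definition used: TGI = concentration required for complete inhibition of growth.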

Key:
Assay in all cases: growth of human tumour cells (NCI), 48 h
786-0 renal = test system: 786-0 renal
A549 NSCLC = test system: A549 NSCLC
IGROV1 ovarian = test system: IGROV1 ovarian
K-562 leukemia = test system: K-562 leukemia
NCI-H226 lung = test system: NCI-H226 lung
NCI-H460 lung = test system: NCI-H460 lung
OVCAR-5 ovarian = test system: OVCAR-5 ovarian
SK-MEL-5 melanoma = test system: SK-MEL-5 melanoma
SN12C renal = test system: SN12C renal
UO-31 renal = test system: UO-31 renal

SMILES | GI50 (786-0 renal) [µM] | TGI (786-0 renal) [µM] | GI50 (A549 NSCLC) [µM] | GI50 (IGROV1 ovarian) [µM] | TGI (IGROV1 ovarian) [µM] | GI50 (K-562 leukemia) [µM] | TGI (K-562 leukemia) [µM] | GI50 (NCI-H226 lung) [µM] | TGI (NCI-H226 lung) [µM] | GI50 (NCI-H460 lung) [µM] | TGI (NCI-H460 lung) [µM] | TGI (OVCAR-5 ovarian) [µM] | GI50 (SK-MEL-5 melanoma) [µM] | TGI (SK-MEL-5 melanoma) [µM] | GI50 (SN12C renal) [µM] | TGI (SN12C renal) [µM] | GI50 (UO-31 renal) [µM] | TGI (UO-31 renal) [µM] | TGI (A549 NSCLC) [µM] | GI50 (OVCAR-5 ovarian) [µM]
Cc1ccc2c(c1)sc(-c1ccc(N(C)C)cc1)[n+]2C | 3.69 | > 45.9 | 0.741 | 3.77 | > 100 | 0.242 | > 50.3 | 3.26 | > 100 | 1.18 | 8.25 | > 100 | 0.39 | 1.8 | 2.71 | 42.8 | 18.9 | > 100 | – | –
OCCCNCc1ccccn1 | – | > 100 | – | – | > 100 | – | > 100 | – | > 100 | – | > 100 | > 100 | – | > 100 | – | > 100 | – | > 100 | > 100 | –
CCOC(=O)/C=C/c1ccc(C(=O)OCC)[nH]1 | 7.85 | > 100 | 5.69 | 4.84 | > 100 | 0.649 | > 100 | 15.4 | > 100 | 3.08 | 14.5 | > 100 | 2.34 | 8.01 | 5.11 | > 100 | 4 | > 100 | > 100 | 19.5
OC1CCC(C2C3CCCCC3C3CCCCC3C2C2CCC(O)CC2)CC1 (stereo not drawn) | – | > 100 | – | – | 12.8 | – | > 100 | – | > 100 | – | 10.2 | > 100 | – | 23.5 | – | > 100 | – | 36.5 | > 100 | –
CN(C)CCNC(=O)c1cccc(CO)c1[N+](=O)[O-] | – | > 100 | – | – | > 100 | – | > 100 | – | > 100 | – | > 100 | > 100 | – | > 100 | – | > 100 | – | > 100 | > 100 | –
CCc1cccc(C)c1NC(=O)CC1Sc2ccccc2NC1=O (stereo not drawn) | – | > 100 | – | – | > 100 | – | > 100 | – | 64.6 | – | > 100 | > 100 | – | > 100 | – | > 100 | – | > 100 | > 100 | –
CCN(CC)C(=S)SSC1CCCCC1 | 19.6 | 35 | 30.9 | 17.2 | 38.4 | 11.3 | 38.8 | 24.7 | 76.1 | 18.3 | 52.7 | 32.7 | 12.5 | 26.3 | 15.8 | 31.2 | 12.1 | 25.7 | 82.6 | 18.7
O=C1C=C(c2cc(Br)c(O)c(Br)c2)/C(=C/c2cc(Br)c(O)c(Br)c2)O1 | 35.8 | > 75 | 11.2 | 17.8 | > 75 | 24 | > 75 | 43.6 | > 75 | 24.1 | > 75 | > 75 | 29 | > 75 | 36.5 | > 75 | 19.2 | > 75 | 49.3 | 64.8
